Data from US20150005253A1, “NOVEL COMBINATIONS FOR TREATING ACUTE MYELOID LEUKAEMIA OR CHRONIC MYELOID LEUKAEMIA” (SANOFI, priority 2012, published 2015).
Where two headings read alike, the source gives them in different places.

Legend:
[1] = tested on: granulomonocytic progenitors (CFU-GM); experiment: Normal myeloid progenitor cell clonogenic assay (CFU-GM); assay type: cell-based; details: Homo sapiens, 336 h, median over normal myeloid progenitor samples, 14 days
Experimental: (§1) For in vitro studies, compound (A) was dissolved at 10 mM in DMSO and diluted in complete RPMI-1640 medium or in phenol red-free complete RPMI-1640 medium in sterile 96-well polystyrene cell culture plates. For in vivo studies, compound (A) was prepared for intravenous (IV) or intraperitoneal (IP) administration by mixing 22% PEG400 with 5% solutol and 73% […]. For oral administration, compound (A), was prepared in a generally regarded as safe (GRAS) formulation composed of 21% labrasol with 5% solutol and 74% HCL 0.001N. Solutions were kept on ice and administered as a bolus within 1 hour after formulation preparation. The volume of injection was 0.2 mL per mouse.
(§2) Fresh CD34^+ human bone marrow cells were washed twice in Iscove modified Dulbecco medium (IMDM) containing 10% FCS and resuspended in H4230 medium supplemented with 10% 5637-conditioned medium for CFU-GM growth, in H4435 medium for CFU-M growth, and in H4535 medium for BFU-E growth. H4230, H4435, and H4535 medium were purchased from Stem Cell Technologies. The cells were then plated in 35-mm Petri dishes and incubated in a humidified CO2 incubator (5% CO2, 37° C.) for 14 days. Colonies (>50 cells) were then scored under an inverted microscope.

[2] = tested on: erythroblastic BFU-E progenitors; experiment: Normal myeloid progenitor cell clonogenic assay (BFU-E); assay type: cell-based; details: Homo sapiens, 336 h, median over normal myeloid progenitor samples, 14 days
Experimental: as §1, §2

[3] = tested on: leukemia progenitors (CFU-L) of AML patient samples; experiment: Myeloid leukemic cell clonogenic assay on AML patient samples (ex vivo); assay type: cell-based, human; details: for IC50: Homo sapiens
Experimental: Hematological malignant cell lines were obtained from Deutsche Sammlung von Mikroorganismen and Zellkulturen GmbH (Braunschweig) and cultured in complete RPMI-1640 medium containing 10% fetal bovine serum and antibiotics. Primary AML cells were obtained from patients seen at Toulouse Hospital (Toulouse, France) at the time of diagnosis and after written informed consent. All samples were evaluated for karyotypic abnormalities, immunologic phenotype, FLT3-acquired activating mutations (internal tandem duplications and kinase domain mutations), t (Mizuki M. et al., Blood 2000 96: 3907-3914; Fiebig H. H. et al., Eur. J. Cancer 2004, 40: 802-820) and inv (Bonnet D. et al., Nat Med 1997 3: 730-737) mutations, and c-kit receptor-acquired mutations. Samples were stored in the Hemopathies Inserm Midi-Pyrénées (HIMIP) collection. Mononuclear cells were separated through a Ficoll-Hypaque density gradient.
as §1
The assay is as described by Récher and colleagues (Récher C. et al., Blood 2005; 105:2527-2534) with slight modifications. Briefly, cells were washed twice in PBS and suspended at 1×10^5 cell/mL in H4230 medium (Stem Cell Technologies) supplemented with 10% 5637-conditioned medium and appropriate dilutions of COMPOUND (A). Cells were then plated on 35 mm petri dishes and incubated at 37° C. in 5% CO2, fully humidified atmosphere. After 7 days, colonies (more than 20 cells) and clusters (more than 5 cells) were scored using an inverted microscope.

KG1a cells = experiment: Tumor implantation study in SCID mice bearing KG1a cells; assay type: in vivo; details: for ΔT/ΔC: evaluated on day 32; for cures: day 120
Experimental: as §1
(§3) Eight-week-old female SCID mice were purchased from Charles River. The Committee of Animal Studies at Sanofi approved the protocol for animal experimentation. This protocol and all laboratory procedures comply with the French Legislation, which implements the European Directives. Animals were received at least one week before the experiment to allow acclimatization. The animals were kept under a natural daylight cycle and given food and water ad libitum.
All tumor cell lines were obtained from DSMZ GmbH. Initially, cell lines were cultured in RPMI 1640 containing 10% FCS and antibiotics, and implanted subcutaneously in SCID mice (10^7 cells/mouse). When the tumor reached approximately 1000 mg, it was removed from the donor mouse, cut into fragments (2-3 mm diameter), placed in a phosphate buffer saline, and implanted bilaterally with a 12-gauge trocar. Tumor fragments were propagated until stable growth behavior occurred (a stable doubling time), before using in experiments. Distribution was performed using body weight and tumor weight criteria with the “Newlab oncology” software (Newlab).
(§4) When ΔT/ΔC values are negative, the percentage of regression is evaluated. Partial regression (PR) is defined as a decrease ≧50% of tumor volume at treatment initiation. Complete regression (CR) is defined as a decrease in tumor volume below the limit of palpation (T=10 mm^3). At study end, the number of tumor-free survivors (TFS), which correspond to mice without any detectable tumor, was determined. Both drug-related deaths and maximum percent relative mean net body weight loss were also determined. Median times to reach tumor target size were compared using Log-Rank or Kruskal-Wallis multiple comparisons tests. A body weight loss nadir (mean of group)>20% or 10% drug-related deaths were considered to indicate an excessive toxic dosage.

in vivo = assay type: in vivo; details: female, SCID, mouse, in vivo; daily IV
Experimental: (§5) Solutions were kept on ice and administered as a bolus within 1 hour after formulation preparation. The volume of injection was 0.2 mL per mouse.
as §3
(§6) When the tumor reached approximately 1000 mg, it was removed from the donor mouse, cut into fragments (2-3 mm diameter), placed in a phosphate buffer saline, and implanted bilaterally with a 12-gauge trocar. Tumor fragments were propagated until stable growth behavior occurred (a stable doubling time), before using in experiments. Distribution was performed using body weight and tumor weight criteria with the “Newlab oncology” software (Newlab).
as §4
(§7) where T is the median time (in days) required for the treatment group tumors to reach a predetermined size (eg, 1000 mg), and C is the median time tumors to reach the same size (in days) for the vehicle group of each schedule. Tumor-free survivors are excluded from these calculations (cures are tabulated separately). T-C is the tumor growth delay and Td is the tumor doubling time in days. […] LCK-g values can be translated into an activity rating, according to the Southern Research Institute (SRI) criteria: […]

KG1 cells = experiment: in vivo; assay type: in vivo; details: for CR / cures / log cell kill-gross (LCK-g): Compound (A) 20 mg/kg IV days 16-20, alone or combined; for tumor response, oral consolidation: after IV induction
Experimental: as §5, §3, §6, §4, §7

CML-T1 = experiment: Human chronic leukaemia CML-T1 implanted in SCID mice; assay type: in vivo; details: Cytarabine 200 mg/kg IP days 8, 12, 16; COMPOUND (A) 10 mg/kg IP days 8, 9, 11-17, 19; alone or combined
Experimental: Food and water were given ad libitum.
as §7

[4] = Cytarabine 31.5 mg/kg IP days 16-22
[5] = very advanced KG1 tumors (1000 mg), 25 mg/kg IV daily day 22-30

## CC(C)(C)NC(=O)Nc1nc2nc(Nc3ccc4nsnc4c3)ncc2cc1-c1c(Cl)cccc1Cl [Compound (A), N-[2-(2,1,3-benzothiadiazol-5-ylamino)-6-(2,6-dichlorophenyl)pyrido[2,3-d]pyrimidin-7-yl]-N′-(1,1-dimethylethyl)-urea]
[1]
  IC50: 788 nM
[2]
  IC50: 219 nM
[3]; range over AML patient samples, read-out: IC50 values ranging (all tested samples)
  IC50: ≥ 3.8 nM
[3]; resistant, N=4 samples, read-out: IC50 maximum, resistant samples
  IC50: > 1000 nM
[3]; resistant, N=4 samples, read-out: IC50 minimum, resistant samples
  IC50: 888 nM
[3]; sensitive, N=26, read-out: IC50 maximum, sensitive samples
  IC50: 532 nM
[3]; sensitive, N=26, read-out: IC50 median, sensitive samples
  IC50: 172 nM
[3]; sensitive, N=26, read-out: IC50 minimum, sensitive samples
  IC50: 3.8 nM
[3]; classified against activity on normal hematopoietic progenitors
  sensitive samples as share of the tested samples: 86.7%
[3]; high-risk group: patients 4, 11, 14, 19, 21, 23, 25, 27, 28, 29
  AML cell samples displaying resistance in the high-risk cytogenetic group: 3
[3]; patient sample 11
  sensitivity of patient sample 11: highly sensitive
KG1a cells; 10 mg/kg
  activity rating: highly active (ΔT/ΔC<0: highly active)
  animals with complete regression: 10/10
  cures: 80%
KG1a cells; 10 mg/kg daily IV day 5-13 then IP to day 31
  ΔT/ΔC: −4.99%
KG1a cells; 17 mg/kg
  activity rating: highly active (ΔT/ΔC<0: highly active)
  animals with complete regression: 10/10
  cures: 60%
KG1a cells; 17 mg/kg daily IV day 5-13 then IP to day 31
  ΔT/ΔC: −4.70%
KG1a cells; 17 mg/kg daily IV day 5-13 then IP, day 22, reversible
  body weight loss at nadir: 16.2%
In vivo
  MTD: 25 mg/kg
KG1 cells; 10 mg/kg IV
  activity rating: active
KG1 cells; 10 mg/kg/day IV
  animals with CR: one of six
KG1 cells; 10 mg/kg/day IV, day 19 to day 38
  ΔT/ΔC: 17.45%
KG1 cells; 25 mg/kg IV
  activity rating: highly active (ΔT/ΔC<0: highly active)
KG1 cells; 25 mg/kg/day IV (MTD)
  animals with complete regressions (CR): 6 out of 6
  animals with cures: 6 out of 6
KG1 cells; 25 mg/kg/day IV, day 19 to day 38
  DT/DC: < −14.27%
KG1 cells; 25 mg/kg/day IV, day 29, reversible
  body weight loss: 18.2%
KG1 cells; [4]
  CR: 83%
  cures: no
  log cell kill-gross (LCK-g): 2.4
KG1 cells; oral 1x50 mg/kg daily day 31-95
  tumor response, oral consolidation: tumors re-grew slowly
KG1 cells; oral 2x40 mg/kg daily day 31-95
  tumor response, oral consolidation: complete disappearance of tumors
KG1 cells; oral 2x40 mg/kg/day
  animals cured: None
KG1 cells; oral 2x40 mg/kg/day, day 28, rapidly reversible
  maximum body weight loss: 14.4%
KG1 cells; oral once a day 19.8 mg/kg
  efficacy (in words): no efficacy
  ΔT/ΔC: 41.99%
KG1 cells; oral once a day 31.5 mg/kg
  DT/DC: 19.72%
KG1 cells; oral once a day 50 mg/kg
  DT/DC: 7.61%
KG1 cells; oral, two daily dosages of 40 mg/kg/day, day 15 to day 40
  ΔT/ΔC: −3.80%
KG1 cells; [5]
  activity rating, IV induction phase: highly active (ΔT/ΔC<0: highly active)
  tumor response, IV induction phase: strong tumor regressions
CML-T1
  LCK-g: 0.1

## Nc1ccn([C@@H]2O[C@H](CO)[C@@H](O)[C@@H]2O)c(=O)n1 [Cytarabine, cytarabine, reference compound]
KG1 cells; [4]
  CR: no
  cures: no
  log cell kill-gross (LCK-g): 1.6
  PR: no
CML-T1
  LCK-g: 0.9
